Reference: US4912116A, “Propiophenone derivatives for treatment of pollakiuria (frequency urination)” (Hokuriku Pharmaceutical Co., Ltd., priority 1986, dated 1990)

Test system: micturition reflex (rhythmic bladder contractions)
Experiment: Inhibition of micturition reflex (rhythmic bladder contractions) in anesthetized rats
Type: in vivo, male wister rats
Conditions: for Disappearance time (of bladder contractions): i.v., 3 rats, mean ± S.E.
Description: statistical analysis: Each data of Experiment 1-6 represents the mean±S.E. statistical analysis of the data was performed using student's t-test.
According to the method described by Morikawa et al. (Folia phamacol. japon.: 88,355 (1986), male wister rats weighing about 300 g (in case of intraduodenal administration, fasted 18-20 hours) were anesthetized with urethane (500 mg/kg, i.p.) and alpha-chloralose (50 mg/kg, i.p.), and fixed on their back.
Then, through a midline incision of the abdomen, the urinary bladder was exposed, provided with a small incision, and a balloon (capacity about 1 ml) was inserted into the bladder dome.
The balloon was connected to a pressure transducer and variations of inside pressure were recorded on a recorder.
Micturition reflex was elicited by elevating balloon pressure 10-20 cm H2 O.
In case of intravenous administration, the drug was administrated through a cannula inserted into the left jugular vein and, in case of intraduodenum administration, the drug was administrated through a cannula into the duodenum from outside the stomach.
In case of intravenous administration, the drug was evaluated by the dissappearance time of bladder contractions caused by micturition reflex.
In case of intraduodenal administration, the sum total of amplitude of bladder contractions caused by the micturition reflex was calculated during each five minutes at 5 min. before and 15, 30, 45, and 60 min. after the administration.
Then, the maximum inhibition rate was determined from one of the above judgment times compared with that of before the administration, and the dose which inhibited 50 percent of the sum total of amplitude of bladder contractions during five minutes (ED 50 value), was calculated from the graph.

Q: How did the “Disappearance time (of bladder contractions)” value (from here on “Disappearance time”) (1 mg/kg) turn out when `CCc1ccc(C(=O)C(C)CN2CCCC2)cc1` (centres unmarked) [Compound 1] was run?
A: 1.1 ± 1.1 min

Q: What about the “Disappearance time” value (2 mg/kg) of the same molecule?
A: 2.3 ± 0.5 min

Q: And the “Disappearance time” value (4 mg/kg)?
A: 7.1 ± 2.8 min

Q: And the ED (3 min disappearance of contractions) (Rattus norvegicus, iv, read-out: ED3 (dose at which rhythmic bladder contractions disappeared in three (3) minutes))?
A: 2.2 mg/kg

Q: What about the ED50 (Rattus norvegicus, intraduodenal administration, read-out: ED50 (dose which inhibited 50 percent of the sum total of amplitude of bladder contractions during five minutes)) of the same molecule?
A: 14.3 mg/kg
